# Reference: patent US5552267A, “Solution for prolonged organ preservation” (priority 1994, dated 1996)
# Entries after “also recorded” stand apart in the source; their conditions may differ. Where a SMILES comes first, the peptide text is derived from it.
# What was measured:
# heart [1] = assay: heterotopic rat cardiac transplant, cAMP series, graft survival/score; assay type: in vivo, rat (male Sprague-Dawley); conditions: 12 h in LR
# From the text: Preservation solutions included lactated Ringer's (LR) solution Baxter, Edison, N.J.), or LR supplemented with rolipram ZK 62 711, Schering AG, Berlin, Germany), indolidan LY195115, Lilly Research Laboratories, Indianapolis, Ind.), sodium butyrate, 8-bromoadenosine, 8-bromoadenosine 3',5'monophosphate (8-Br-cAMP; Sigma Chemical Co., St. Louis, Mo.), the Rp -isomer of adenosine 3',5'monophosphorothioate (Rp -cAMPS; Biolog, La Jolla, Calif.), the Sp isomer of adenosine 3',5'monophosphorothioate (Sp -cAMPS; Biolog), and N^6,O^2' -dibutyryl adenosine 3',5'monophosphate sodium (db-cAMP; Aldrich, Milwaukee, Wis.). Components were combined within 4 hrs of donor cardiectomy, and preservation solutions were kept at 4° C. University of Wisconsin solution (UW)(2-4 was purchased from Dupont (Wilmington, Del.).
# Donor Cardiectomy. Male Sprague-Dawley rats (350-450 grams, Camm Research, Wayne, N.J.) were anesthetized, heparinized (1000 units of heparin given intravenously), and the donor heart removed in the following manner; a midline incision was performed, followed by rapid cardioplegic arrest with 5 ml of cold (4° C.), high potassium solution (NACl, 0.9%, and KCl, 40 mEq/L). The heart was maintained at 4° C. throughout the harvest procedure by the application of a cold saline soaked gauze over its surface. […] The aortic root was flushed with ≈15 ml of the cold preservation solution until the coronary arteries became visibly clear, and the heart remained in the cold storage solution for the indicated duration until the time of transplantation.
# Heterotopic Transplant. The same breed/size of rat was used, and similarly anesthetized, but not given heparin. A midline abdominal incision was made, and the infrarenal aorta and vena cava were occluded with a side-biting vascular clamp and longitudinal incisions were made in each vessel. The donor heart was removed from the preservation solution and kept moist with saline-soaked gauze. […] Blood flow was restored to the graft (by removal of the clamp) exactly one hour after removal from the cold preservation solution. […] Ten minutes after removal of the cross-clamp, an electrocardiogram was taken (Grass Polygraph, Quincy, Mass.) and the heart was judged by the same blinded investigators throughout based on the presence/absence of regular contractions and a transplant score (0-5, worst-best, respectively) employing the following criteria: contraction (poor=0, average=1, vigorous=2), tissue turgor (hard=0, average=1, soft=2), and color (dusky=0, pink=1). […] The heterotopic cardiac transplant experiments performed in these studies were done by a single surgeon after establishment of this model and acquisition of surgical expertise, with control and experimental groups interspersed throughout the study period to prevent a time-dependent bias pertaining to surgical skills.
# Statistics. Graft survival data and transplant scores were analyzed using the Kruskal-Wallis non-parametric analysis of variance (38). Comparisons of individual treatments were performed using the procedure described by Dunn (39). In addition, the effect of db-cAMP on the time-course of graft failure was quantified by multivariate logistic regression. Graft myeloperoxidase data, microsphere data, and cAMP/adenylate cyclase/phosphodiesterase data from experiments with cultured vascular smooth muscle cells were analyzed by t-tests when 2 treatments were performed or by analysis of variance when 3 or more treatments were performed. In the latter case, post-hoc comparison of treatment groups were tested using Tukey's procedure. Values are expressed as means ±SEM, with a p <0.05 considered statistically significant.
# [2] = test system: cGMP-dependent protein kinase; conditions: relative to cGMP; cited from earlier work
# lung = assay: orthotopic rat left lung transplantation, cGMP series (hemodynamics, oxygenation, recipient survival); assay type: in vivo, rat (male Lewis); conditions: 6 h in EC
# Procedure: Orthotopic rat left lung transplantation was accomplished using inbred male Lewis rats (250-300 gms), using a modification of a previously described technique^29. The donor rat was anesthetized and heparinized (500 U intravenously), and endotracheal intubation was performed by inserting a 16 gauge angiocatheter into the trachea using blunt cervical dissection, after which the rat was ventilated with room air at a constant rate (100 breaths/minute) and tidal volume (2.5 ml), using a Harvard rodent ventilator. […] The pulmonary artery (PA) and pulmonary vein (PV) were divided, the bronchus ligated with the lung partially inflated and then divided, and the lung removed. The vascular stumps were each pulled through a small plastic cylinder, and a lip of vessel was turned back around the edge and secured in place with a suture to form a "cuff." A small plastic cylinder was inserted into the bronchial stump and secured, and the lung was then wrapped in gauze and submerged in cold preservation solution for the desired interval.
# The recipient rat (gender/size/strain-matched) was similarly anesthetized and intubated (ventilated with 100% oxygen), but not heparinized. A left thoracotomy was performed, the hilum was dissected, and the left bronchus, PA, and PV were isolated, cross-clamped, divided and the native lung was removed from the field. The PA and PV stumps were rinsed with heparinized saline to remove any clot. The donor lung was brought onto the surgical field, and the cylinder (bronchus) and cuffs (PA and PV) were connected rapidly to their respective structures with a simple staying suture. This cuff technique permitted rapid approximation of donor and recipient tissues with no contact of a foreign substance with the luminal vascular surface. The hilar cross-clamp was released, re-establishing blood flow, and the bronchus tie was removed, enabling gas exchange. A snare was then passed around the right PA, and a Millar catheter (2F; Millar Instruments,Houston, Tex.) was introduced through a small hole (surrounded by a pursestring) into the main PA; similarly, a Millar catheter was introduced into the left atrium (LA). A flow probe (Transonics, Ithaca, N.Y.) was then placed around the main PA. Arterial blood gas sampling performed via the left femoral artery.
# Online hemodynamic monitoring was accomplished using MacLab and a Macintosh IIci computer. The hemodynamic parameters that were measured included PA pressure (mm Hg), blood flow (ml/min), LA pressure (mm Hg), as well as arterial oxygen tension (mm Hg) during inspiration of 100% oxygen; pO2 was analyzed with a model ABL-2 dissolved gas analyzer (Radiometer, Copenhagen, Denmark). Pulmonary vascular resistances (PVRs) were calculated as [mean PA pressure-LA pressure]/PA flow. The native lung supported the recipient during the period of warm ischemia (the period during which the donor lung was removed from cold preservation until the time of reperfusion, <10 min. in all instances), but immediately following rapid hemodynamic instrumentation and acquisition of baseline measurements, the native (right) PA was then ligated, and serial measurements (representative solely of the transplanted lung) were taken every five minutes for 30 minutes. Because the native lung was effectively removed from the circulation by ligation of the right PA, these measurements represent function of the transplanted lung. Recipient death was identified by the cessation of cardiac mechanical activity observed through the thoracotomy.
# Preservation solutions were freshly made and coded by a technician not otherwise involved in the experiments, according to a general plan which included both control and experimental groups. […]
# [3] = test system: nitric oxide at lung surface; assay: in vivo pulmonary NO with porphyrinic microsensor; set-up: species or system rat; conditions: during continued reperfusion; A23187 9.5 μM
# Procedure: Measurements of nitric oxide concentrations in vivo were performed with a two electrode system using a porphyrinic sensor as a working electrode and a platinum wire as an auxiliary/reference electrode. The porphyrinic sensor with a flexible base was lowered onto the exposed surface of the lung using a micromanipulator. A small piezoelectric signal (mechanically generated current) was used to indicate that the sensor had made contact with the tissue surface. NO measurements were begun once the flexible sensor assumed an L-shaped configuration on the tissue surface and the platinum wire was connected to adjacent tissue. Continous amperometric (current-time) measurements were obtained at a constant potential of 0.68 V, during the period of warm ischemia (after the lung was sewn in place but not yet reperfused) and continously as the vascular cross-clamp was released and reperfusion initiated. Topical application of the calcium ionophore (A23187, 9.5 μM; Sigma) and superoxide dismutase (100 U/ml; Sigma) was applied as monitoring was continued.
# heart [4] = assay: heterotopic rat cardiac transplant, nitric oxide series, graft survival/score; assay type: in vivo, rat (male Sprague-Dawley); conditions: 12 h in LR
# From the text: Male Sprague-Dawley rats (350 grams, Camm Research, Wayne, N.J.) were used, and harvest, preservation, and transplantation procedures performed as described^8. Preservation solutions included lactated Ringer's (LR) solution (Baxter, Edison, N.J.), or LR supplemented with nitroglycerin (DuPont, Wilmington, Del.), sodium nitroprusside (Roche Laboratories, Nutley, N.J.), N^G -monomethyl-L-arginine (L-NMMA; Chembiochem, Salt Lake City, Utah), L-arginine (Sigma Chemical Co., St. Louis, Mo.), or 8-bromoguanosine3',5'monophosphate (8-Br-cGMP; Sigma). Components were combined within 4 hrs of donor cardiectomy, and preservation solutions were kept at 4° C. All of these solutions were at the pH of LR (6.6). University of Wisconsin solution (UW) was purchased from Dupont. […] Ten minutes after removal of the cross-clamp, an electrocardiogram was taken (Grass Polygraph, Quincy, Mass.) and the heart was judged by the same blinded investigators throughout based on the presence/absence of regular contractions and a transplant score (0-5, worst-best, respectively) employing the following criteria: contraction (poor=0, average=1, vigorous=2), tissue turgor (hard=0, average=1, soft=2), and color (dusky=0, pink=1).
# Graft survival data was analyzed by contingency analysis (chi-square). Transplant scores, microsphere perfusion, myeloperoxidase, NO synthase, and platelet serotonin release data were analyzed using ANOVA for unpaired variables with the Tukey test used to discriminate significant differences between group means. Values are expressed as means ±SEM, with a p<0.05 considered statistically significant.
# [5] = test system: cardiac graft vasculature; assay: perfusion of donor grafts by microspheres, nitric oxide series; assay type: in vivo, rat; conditions: 12 h preservation in LR
# Procedure: Ten minutes after restoration of blood flow, 0.5 ml of 10 μm diameter microspheres (10^6 /ml) (E-Z Trac, Los Angeles, Calif.) was injected into the donor aortic root. Deposition of microspheres in ventricular tissue was assessed following alkaline hydrolysis, washing, and counting of microspheres as described^8, with results expressed as number of spheres per (40×) field per gram of ventricle. A minimum of ten fields were counted and the mean ±SEM is reported.
# heart [6] = conditions: in vivo; cited from earlier work
# [7] = test system: nitric oxide production in heart; assay: direct measurement of coronary vascular and endocardial NO with porphyrinic microsensor; set-up: species or system rat
# Procedure: Direct measurement of coronary vascular and endocardial nitric oxide synthesis were made with a porphyrinic microsensor^13 using differential pulse voltammetry or amperometry. Rat hearts were explanted and preserved as described above, and studied fresh (no preservation/transplantation) or after hypothermic preservation in lactated Ringer's (LR) solution, heterotopic transplantation, and 10 minutes of reperfusion. The coronary vasculature was flushed free of blood with LR followed by 4 ml of LR supplemented with L-Arg (2 mM) and bradykinin ([…], Sigma), which was recycled (1 ml/min) through the coronary vasculature by flushing down the cross-clamped aortic root. Aliquots of perfusate were immediately transferred to an anaerobic environment for measurements and compared to an aqueous nitric oxide reference. Differential pulse voltammograms were obtained using a sensor (working electrode), saturated calomel electrode reference, and platinum wire-auxiliary electrode, with a pulse amplitude of 40 mV. Endocardial NO was measured by implanting the sensor in the septal endocardium of a freshly explanted or preserved/transplanted heart, and after the baseline stabilization, […] bradykinin was applied and NO release continuously monitored by amperometry at constant potential of 0.63 V.
compound,measurement,setting,value
"Nc1ncnc2c1nc(Br)n2[C@@H]1O[C@@H]2COP(=O)(O)O[C@H]2[C@H]1O [8-Br-cAMP, 8-bromoadenosine 3'5'monophosphate]",concentration for optimal/maximal preservation,heart [1],0.1 mM
same,effect on cardiac preservation,heart [1],prolonged graft survival
same,graft survival,heart [1]; 8-Br-cAMP 0.1 mM,100%
same,fold less potent than cGMP in activating cGMP-dependent protein kinase,[2],53 fold
Nc1nc2c(nc(Br)n2[C@@H]2O[C@H](CO)[C@@H](O)[C@H]2O)c(=O)[nH]1 [8-Br-guanosine],effect on lung preservation,lung,without effect
Nc1nc2c(nc(Br)n2[C@@H]2O[C@H](COP(=O)(O)O)[C@@H](O)[C@H]2O)c(=O)[nH]1 [8-bromoguanosine 5'monophosphate],effect on lung preservation,lung,without effect
CNc1ccc2oc(C[C@H]3O[C@@]4(CC[C@H]3C)O[C@H]([C@H](C)C(=O)c3ccc[nH]3)[C@H](C)C[C@H]4C)nc2c1C(=O)O [A23187],effect on decline in NO,[3],did not alter the decline in NO
"N=C(N)NCCC[C@H](N)C(=O)O [L-Arg, L-arginine]",effect on graft preservation (words),heart [4],enhanced preservation
same,effect on graft preservation (words),heart [4]; listed as L-arginine,enhanced graft survival
same,graft blood flow,[5],enhanced blood flow
same,effect in cardiac ischemia models,heart [6],improve vascular function and outcome
"CNC(=N)NCCC[C@H](N)C(=O)O [L-NMMA, N^G -monomethyl-L-arginine]",effect on graft preservation (words),heart [4],blocked the beneficial effects of L-Arg
same,graft survival,heart [4]; NTG 0.1 mg/ml where added,0%
same,effect on graft preservation (words),heart [4]; listed as N^G -monomethyl-L-arginine,no survival of cardiac grafts; also recorded: poor preservation
same,graft blood flow,[5],decreased blood flow
same,effect on NO levels,[7]; transplanted hearts,blocked further NO production
N=C(NCCC[C@H](N)C(=O)O)N[N+](=O)[O-] [N^ω -nitro-L-arginine],effect on graft preservation (words),heart [4],blocked the beneficial effects of L-Arg
N=c1c[n+](N2CCOCC2)[n-]o1 [SIN-1],effect in cardiac ischemia models,heart [6],improve vascular function and outcome
"O=NO [acidified sodium nitrite, sodium nitrite]",effect in cardiac ischemia models,heart [6],blunt myocardial injury and neutrophil accumulation during reperfusion; also recorded: improve vascular function and outcome
NC(N)=NCCC[C@H](NC(=O)[C@H](Cc1ccccc1)NC(=O)[C@@H]1CCCN1C(=O)[C@H](CO)NC(=O)[C@H](Cc1ccccc1)NC(=O)CNC(=O)[C@@H]1CCCN1C(=O)[C@@H]1CCCN1C(=O)[C@@H](N)CCCN=C(N)N)C(=O)O [bradykinin] (H-RPPGFSPFR-OH),endocardial NO plateau following bradykinin challenge,[7]; freshly explanted heart,0.67 ± 0.06 µM
same,endocardial NO plateau following bradykinin challenge,[7]; preserved (38 hrs) heart,0.17 ± 0.05 µM
CC1(C)C(=O)Nc2ccc(C3=NNC(=O)CC3)cc21 [indolidan],effect on cardiac preservation,heart [1],uniformly enhanced preservation
"CCCC(=O)Nc1ncnc2c1ncn2[C@@H]1O[C@@H]2COP(=O)(O)O[C@H]2[C@H]1O [mb-cAMP, N^6 -monobutyryladenosine 3'5'monophosphate]",fold less potent than cGMP in activating cGMP-dependent protein kinase,[2],313 fold
